“Also recorded” adds a separate entry of the source.
Test system: insulinoma cells MIN 6 cultured with L-glucose
Experiment: Screening of substances that have anticancer effect in mice with intraperitoneally transplanted, L-glucose-cultured insulinoma cells MIN6
Format: in vivo, mouse
Procedure: Not only human cancer cells A549 but also mouse insulinoma cells MIN6 can be successfully cultured with the L-glucose medium. Mouse insulinoma cells MIN6 were cultured with the D-glucose medium. At a stage where the cells proliferated sufficiently, the medium was changed to the L-glucose medium. Subsequently, the medium change was performed frequently over 2 to 3 days. After almost all dead cells were confirmed to be removed, half the amount of the medium was changed every other day. The MIN6 cells were passaged once or twice using the L-glucose medium. After the culture for 8 to 11 days, the MIN 6 cells were trypsinized to form a cell suspension, which was transplanted at 5×10^6 cells (100 μL)/mouse subcutaneously into the right thigh of mice or at 1.0×10^5 cells (20 μL)/mouse into the abdominal cavity of mice without using Matrigel. As a control, MIN6 cells cultured with the normal D-glucose medium were also transplanted into mice. Because of rapid growth in the D-glucose medium, MIN6 cells were cultured with the D-glucose medium for 6 to 7 days and then transplanted at the same density as that of L-glucose-cultured cells subcutaneously into the right thigh of mice.
A method of screening substances that have anticancer effect was examined using, as a test substance, 2-deoxy-2-(2-oxo-2H-chromen-7-yl) amino-L-glucose (hereinafter referred to as “CLG”) (Japanese Patent No. 6566348), which is a molecule having a 7-OH-cuoumarin moiety bonded to L-glucose via a nitrogen atom.
On day 0, insulinoma cells MIN 6 cultured with L-glucose were intraperitoneally transplanted into 32 mice (four groups each including 8 mice). On day 1, the following groups were prepared: • 8 mice that were intraperitoneally administered every day until day 4 (over 4 minimum days) with a saline solution of CLG at a concentration of 53 mg/kg expected to be safe (CLG administration group); • 8 mice that were intraperitoneally administered only with a CLG-free saline every day until day 7 (over 7 days) (saline administration group); and • 8 mice that were intraperitoneally administered every day until day 7 (over 7 days) with 5-FU (which is used as a standard treatment for pancreatic cancer in Japan and the Europe and also used for treatment of neuroendocrine tumors such as insulinoma) at a high concentration of 25 mg/kg acceptable for nude mice (5-FU administration group).
All mice were euthanized at month 5 and subjected to pathological autopsy.

Compound | share of mice with normal blood sugar levels and no tumor (8 mice, 53 mg/kg intraperitoneally, day 1 to day 4, month 5) | overall anticancer effect in vivo (administered only for 4 days) | mice that maintained normal blood sugar levels until the final euthanasia, with no tumor on dissection (of the 8 mice, 53 mg/kg intraperitoneally every day, day 1 to day 4, euthanasia at month 5) | mice with a malignant tumor classifiable as neuroendocrine carcinoma (NEC) in the abdominal cavity (of the 8 mice, pathological examination of whole-body sections) | onset of reduction in blood sugar level compared with the saline administration group (remaining 4 of the 8 mice) | necrosis of the intraperitoneal tumor (the one mouse with a malignant tumor) | pathological finding in individual mice (25 mg/kg intraperitoneally every day, day 1 to day 7, 8 mice) | mice likely to have worsened conditions, dissected on day 10 and each found to have a tumor (25 mg/kg intraperitoneally every day, day 1 to day 7, of 8 mice, day 10)
2-deoxy-2-(2-oxo-2H-chromen-7-yl) amino-L-glucose [CLG] | 50% | significant effect in vivo | 4 mice | one | one week later | at least 90% |  | 
O=c1[nH]cc(F)c(=O)[nH]1 [5-FU, reference compound] |  |  |  |  |  |  | large, highly-atypical, significant liver metastasis with high malignancy; also recorded: invasive cancer in the smooth muscle around the transverse colon | 3 mice
